Measured values from publication PMC12250965, “Design and Synthesis of Sulfonium and Selenonium Derivatives Bearing 3′,5′-O-Benzylidene Acetal Side Chain Structure as Potent α-Glucosidase Inhibitors” (Molecules, 2025).
Like-named read-outs stand apart in the source and are kept apart here.

Columns and labels:
[1] = target: rat intestinal maltase; experiment: In vitro α-glucosidase inhibition assay, rat intestinal maltase; assay type: biochemical; settings: rat small intestinal brush border membrane vesicles; maltose substrate; mean ± SD (n = 3); read-out: IC50 against maltase
Experimental: (§1) The testing method previously described was modified and used. Thus, rat small intestinal brush border membrane vesicles were first prepared, and its suspension in 0.1 M maleate buffer (pH = 6.0) was used as small intestinal α-glucosidases of maltase and sucrase. A test compound was dissolved in dimethylsulfoxide (DMSO), and the resulting solution was diluted with 0.1 M maleate buffer to prepare the test compound solution (concentration of DMSO: 10%). The substrate solution in maleate buffer ([…], 50 μL), a test compound solution (25 μL), and the enzyme solution (25 μL) were mixed and incubated at 37 °C for 30 min. After incubation, the solution was immediately heated by boiling water for 2 min to stop the reaction, and the solution was mixed with water (150 μL). Glucose concentration was determined by the glucose-oxidase method. […] The IC50 value was determined graphically by a plot of percent inhibition versus log of the test compound.

[2] = target: T1, rat intestinal sucrase (Rattus norvegicus, UniProt P23739); experiment: In vitro α-glucosidase inhibition assay, rat intestinal sucrase; assay type: biochemical
T1 construct: rat small intestinal brush border membrane vesicles were first prepared; from tissue; host or cells: rat small intestine, brush border membrane vesicles
Experimental: as §1

[3] = rat small intestinal brush border membrane vesicles, sucrose substrate, mean ± SD (n = 3), read-out: IC50 against sucrase

T1 sequence (P23739 whole entry): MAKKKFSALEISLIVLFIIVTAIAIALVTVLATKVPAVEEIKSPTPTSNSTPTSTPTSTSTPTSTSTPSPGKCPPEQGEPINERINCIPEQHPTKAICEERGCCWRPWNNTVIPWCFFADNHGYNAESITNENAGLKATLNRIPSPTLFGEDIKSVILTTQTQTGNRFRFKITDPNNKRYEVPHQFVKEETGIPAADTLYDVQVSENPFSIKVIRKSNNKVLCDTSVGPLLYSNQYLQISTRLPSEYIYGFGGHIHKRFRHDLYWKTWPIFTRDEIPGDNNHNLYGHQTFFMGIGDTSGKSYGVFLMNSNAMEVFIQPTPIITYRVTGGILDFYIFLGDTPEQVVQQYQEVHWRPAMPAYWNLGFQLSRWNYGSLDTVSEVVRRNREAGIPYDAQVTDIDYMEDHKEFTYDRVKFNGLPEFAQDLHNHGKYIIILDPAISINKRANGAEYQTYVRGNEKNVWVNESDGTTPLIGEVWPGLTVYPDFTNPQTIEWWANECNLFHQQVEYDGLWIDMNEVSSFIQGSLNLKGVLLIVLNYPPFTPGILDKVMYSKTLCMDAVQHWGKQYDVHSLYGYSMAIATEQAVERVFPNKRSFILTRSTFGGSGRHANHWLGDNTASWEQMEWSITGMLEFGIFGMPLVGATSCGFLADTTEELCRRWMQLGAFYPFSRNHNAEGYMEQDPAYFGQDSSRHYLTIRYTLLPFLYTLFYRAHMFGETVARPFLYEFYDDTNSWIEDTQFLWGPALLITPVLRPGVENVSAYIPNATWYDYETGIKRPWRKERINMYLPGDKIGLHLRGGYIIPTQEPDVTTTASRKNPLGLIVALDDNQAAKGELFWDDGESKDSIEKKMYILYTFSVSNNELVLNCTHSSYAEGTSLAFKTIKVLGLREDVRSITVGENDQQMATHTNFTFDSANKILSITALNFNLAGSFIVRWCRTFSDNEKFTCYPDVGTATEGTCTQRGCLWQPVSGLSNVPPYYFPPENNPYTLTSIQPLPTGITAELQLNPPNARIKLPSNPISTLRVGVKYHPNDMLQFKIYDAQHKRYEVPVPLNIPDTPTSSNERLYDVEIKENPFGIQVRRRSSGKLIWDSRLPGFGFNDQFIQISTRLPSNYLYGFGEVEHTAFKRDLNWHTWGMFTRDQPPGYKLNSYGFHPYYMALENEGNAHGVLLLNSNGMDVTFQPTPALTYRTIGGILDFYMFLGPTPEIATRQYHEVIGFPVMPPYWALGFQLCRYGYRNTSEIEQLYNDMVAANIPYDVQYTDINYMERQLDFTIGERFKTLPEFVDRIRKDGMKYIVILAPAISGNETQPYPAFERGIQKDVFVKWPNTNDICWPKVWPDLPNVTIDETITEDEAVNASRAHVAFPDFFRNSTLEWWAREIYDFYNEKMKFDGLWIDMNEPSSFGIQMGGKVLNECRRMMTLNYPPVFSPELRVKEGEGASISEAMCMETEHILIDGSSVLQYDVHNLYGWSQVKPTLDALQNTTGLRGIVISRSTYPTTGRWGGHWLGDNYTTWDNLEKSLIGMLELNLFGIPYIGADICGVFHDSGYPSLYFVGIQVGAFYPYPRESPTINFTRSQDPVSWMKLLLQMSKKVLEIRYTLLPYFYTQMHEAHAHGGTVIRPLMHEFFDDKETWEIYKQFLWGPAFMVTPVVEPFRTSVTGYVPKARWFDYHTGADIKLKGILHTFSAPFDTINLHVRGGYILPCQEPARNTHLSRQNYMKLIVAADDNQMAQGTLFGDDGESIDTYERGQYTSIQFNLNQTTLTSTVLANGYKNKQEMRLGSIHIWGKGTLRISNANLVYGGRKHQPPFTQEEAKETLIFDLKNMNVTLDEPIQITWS

Compound | IC50 [1] [nM] | IC50 [2] [nM] | IC50 [2, 3] [nM]
OC[C@@H]1[C@@H](O)[C@H](O)C[Se@@+]1C[C@@H](O)[C@H]1OC(c2ccccc2I)OC[C@H]1O (stereo partly drawn) [20o, (1S,2R,3S,4S)-3,4-Dihydroxy-1-((2S)-2-hydroxy-2-((4S,5R)-5-hydroxy-2-(2-iodophenyl)-1,3-dioxan-4-yl)ethyl)-2-(hydroxymethyl)tetrahydro-1H-selenophen-1-ium chloride] | 360 ± 70 | 300 ± 110 | 
O=[N+]([O-])c1ccc(F)cc1C1OC[C@@H](O)[C@@H]([C@H](O)C[Se@@+]2C[C@@H](O)[C@H](O)[C@H]2CO)O1 (stereo partly drawn) [20j, (1S,2R,3S,4S)-1-((2S)-2-((4S,5R)-2-(5-Fluoro-2-nitrophenyl)-5-hydroxy-1,3-dioxan-4-yl)-2-hydroxyethyl)-3,4-dihydroxy-2-(hydroxymethyl)tetrahydro-1H-selenophen-1-ium chloride] | 330 ± 80 | 90 ± 30 | 
OCC1C(O)C(O)C[S+]1CC(O)C1OC(c2ccccc2I)OCC1O [19o, 1,4-Dideoxy-1,4-[(R)-(5-deoxy-1,3-O-(o-iodobenzylidene)-D-arabinitol-5-yl)episulfoniumylidene]-D-arabinitol chloride] | 3100 ± 660 |  | 3300 ± 280
OC[C@@H]1[C@@H](O)[C@H](O)C[Se@+]1C[C@@H](O)[C@H]1OC(c2cc(F)cc(Cl)c2)OC[C@H]1O (stereo partly drawn) [20h, (1S,2R,3S,4S)-1-((2S)-2-((4S,5R)-2-(3-Chloro-5-fluorophenyl)-5-hydroxy-1,3-dioxan-4-yl)-2-hydroxyethyl)-3,4-dihydroxy-2-(hydroxymethyl)tetrahydro-1H-selenophen-1-ium chloride] | 3670 ± 890 | 1960 ± 250 | 
OCC1C(O)C(O)C[S+]1CC(O)C1OC(c2cccc3ccccc23)OCC1O [19q, 1,4-Dideoxy-1,4-[(R)-(5-deoxy-1,3-O-(1-naphthalene)-D-arabinitol-5-yl)episulfoniumylidene]-D-arabinitol chloride] | 4600 ± 370 |  | 5800 ± 410
OCC1C(O)C(O)C[S+]1CC(O)C1OC(c2cccc(Br)c2)OCC1O [19l, 1,4-Dideoxy-1,4-[(R)-(5-deoxy-1,3-O-(m-bromobenzylidene)-D-arabinitol-5-yl)episulfoniumylidene]-D-arabinitol chloride] | 9700 ± 740 |  | 7900 ± 1600
OC[C@@H]1[C@@H](O)[C@H](O)C[Se@@+]1C[C@@H](O)[C@H]1OC(c2cccc3ccccc23)OC[C@H]1O (stereo partly drawn) [20q, (1S,2R,3S,4S)-3,4-dihydroxy-1-((2S)-2-hydroxy-2-((4S,5R)-5-hydroxy-2-(naphthalen-1-yl)-1,3-dioxan-4-yl)ethyl)-2-(hydroxymethyl)tetrahydro-1H-selenophen-1-ium chloride] | 920 ± 230 | 680 ± 140 | 
N#Cc1ccccc1C1OC[C@@H](O)[C@@H]([C@H](O)C[Se@@+]2C[C@@H](O)[C@H](O)[C@H]2CO)O1 (stereo partly drawn) [20p, (1S,2R,3S,4S)-1-((2S)-2-((4S,5R)-2-(2-Cyanophenyl)-5-hydroxy-1,3-dioxan-4-yl)-2-hydroxyethyl)-3,4-dihydroxy-2-(hydroxymethyl)tetrahydro-1H-selenophen-1-ium chloride] | 820 ± 210 | 370 ± 50 | 
